Laboratory results published in PubChem BioAssay AID790 (SRMLSC, 2007).
The source made the active and inactive calls. How the calls were made is not given here.

Assays:
[1] = growth inhibition of yeast vps1Δ mutant, dose response, S. cerevisiae, background strain comparison (AID 790); conditions: S. cerevisiae vps1Δ mutant growth inhibition; measured here: background strain growth inhibition
[2] = test system: S. cerevisiae vps1Δ mutant growth inhibition; assay: as above

| Structure (SMILES) | IC50 [1] | IC50 [2] |
| --- | --- | --- |
| O=C1OCC(CO)(CO)N=C1NNc1ccc(Cl)c(Cl)c1 | 3.35 µM | 2.43 µM |
| COc1ccc(Nc2nc(N)nc(CSc3nnc(N)s3)n2)cc1 | > 10 µM | > 10 µM (inactive) |
| CCOC(=O)Cn1cc(C=O)c2ccccc21 | > 10 µM | > 10 µM (inactive) |
| CCN(CC)CCCN(Cc1cc2cc3c(cc2[nH]c1=O)OCCO3)C(=O)Nc1ccc(F)cc1 | > 10 µM | > 10 µM (inactive) |
| CCOC(=O)N1CCN(c2ccc(S(=O)(=O)N(Cc3ccccc3)Cc3ccccc3)cn2)CC1 | > 10 µM | > 10 µM (inactive) |
| CC1CC(C)CN(CCOc2ccc(Cl)cc2Cl)C1 (stereo unspecified) | > 10 µM | > 10 µM (inactive) |
| CCN(CC)c1nc2cc(OC)ccc2cc1C#N | > 10 µM | > 10 µM (inactive) |
| O=C(NCCSCc1ccc(Cl)cc1Cl)c1ccc(CN2CCOCC2)cc1 | > 10 µM | > 10 µM (inactive) |
| O=C(COc1ccc(Cl)cc1)Nc1ccc(N2CCN(C(=O)c3ccco3)CC2)cc1 | > 10 µM | > 10 µM (inactive) |
| CCOC(=O)Cc1c(C)c2ccc(N(CC)CC)cc2oc1=O | > 10 µM | > 10 µM (inactive) |
| FC(F)(F)COc1nc(N2CCCCC2)nc(N2CCNCC2)n1 | > 10 µM | > 10 µM (inactive) |
| Cc1cccc2cc(C#N)c(NCCCn3ccnc3)nc12 | > 10 µM | > 10 µM (inactive) |
| CCOC(=O)c1c(CN2CCCCC2C)oc2ccc(OC)cc12 (stereo unspecified) | > 10 µM | > 10 µM (inactive) |
| CC1=CC(C)(C)Nc2ccc(OC(=O)CN3C(=O)c4cccc5cccc(c45)C3=O)cc21 | > 10 µM | > 10 µM (inactive) |
| Cc1ccc(S(=O)(=O)N(CC(=O)N2CCC(C(N)=O)CC2)c2cccc(C(F)(F)F)c2)cc1 | > 10 µM | > 10 µM (inactive) |
| O=[N+]([O-])c1ccc(N/N=C/c2c[nH]c3ccccc23)c(S(=O)(=O)Nc2ccc(Cl)cc2)c1 | 2.5 µM | 2.47 µM |
| Cc1cc(NCCCN2CCOCC2)n2ncc(-c3ccc(Cl)cc3)c2n1 | > 10 µM | > 10 µM (inactive) |
| O=C(NC1CCN(Cc2ccccc2)CC1)C1COc2ccccc2O1 (stereo unspecified) | > 10 µM | > 10 µM (inactive) |
| O=C(OCn1ncc(Cl)c(Cl)c1=O)c1ccccc1Cl | 16.6 µM | 5.41 µM |
| Cc1ccnc(N2C(=O)c3cccc4c([N+](=O)[O-])ccc(c34)C2=O)c1 | 4.22 µM | 2.86 µM |

| Structure (SMILES) | IC50 [1] | IC50 [2] |
| --- | --- | --- |
| CCOC(=O)c1ccc(NC(=O)c2cn(-c3ccccc3)nc2-c2ccncc2)cc1 | 11.5 µM | > 10 µM (inactive) |
| O=C(C1COc2ccccc2O1)N1CCN(Cc2ccc3c(c2)OCO3)CC1 (stereo unspecified) | > 10 µM | > 10 µM (inactive) |
| COc1ccc(-c2cc(N)n(S(=O)(=O)c3c(F)c(F)c(F)c(F)c3F)n2)cc1OC | 1.08 µM | 2.29 µM (inactive) |
| c1ccc(-c2ccc(-c3cnc4n3CCCCC4)cc2)cc1 | > 10 µM | > 10 µM (inactive) |
| O=C(OCn1ncc(Br)c(Br)c1=O)c1ccc(F)cc1 | 5.38 µM | 3.91 µM |
| O=C1CN(C(=O)CSc2nnc(-c3ccccc3)n2Cc2ccc3c(c2)OCO3)c2ccccc2N1 | > 10 µM | > 10 µM (inactive) |
| COc1ccc(C2C3=C(CCCC3=O)Nc3nc(-c4cc(OC)c(OC)c(OC)c4)nn32)cc1OC (stereo unspecified) | > 10 µM | > 10 µM (inactive) |
| Cn1c(=O)cc(NCc2ccccc2)[nH]c1=O | > 10 µM | > 10 µM (inactive) |
| Cc1cc(C)nc(NC(=O)CSc2nn(C)c(=S)s2)n1 | > 10 µM | > 10 µM (inactive) |
| CCC(C)(C)n1nnnc1C(c1cc2cc3c(cc2[nH]c1=O)OCO3)N1CCN(C)CC1 (stereo unspecified) | > 10 µM | > 10 µM (inactive) |
| COc1ccccc1N1CCN(Cc2ccccc2F)CC1 | > 10 µM | > 10 µM (inactive) |
| Cc1cc2ncn(CC(O)COc3cccc(C(=O)O)c3)c2cc1C (stereo unspecified) | > 10 µM | > 10 µM (inactive) |
| Cc1cc(Cl)cc(C)c1OCCCCN1CCOCC1 | > 10 µM | > 10 µM (inactive) |
| O=C(Cc1cccs1)Nc1nc2c(s1)CCCC2 | > 10 µM | > 10 µM (inactive) |
| COc1ccc2nc(NCCCNC(=O)c3cc(OC)c(OC)c(OC)c3)c(C#N)cc2c1 | > 10 µM | > 10 µM (inactive) |
| O=[N+]([O-])c1cc(C(F)(F)F)ccc1N/N=C/c1cc2ccccc2nc1Cl | > 10 µM | > 10 µM (inactive) |
| Cc1ccc(-n2cc3c(-c4cccc(Br)c4)nnc(C)c3n2)cc1 | 13.5 µM | 1.48 µM |
| O=C(O)Cn1c(SCCOc2ccccc2F)nc2ccccc21 | > 10 µM | > 10 µM (inactive) |
| Clc1ccc(-c2cnc(Oc3ccccc3)nc2)cc1 | > 10 µM | > 10 µM (inactive) |
| CCOC(=O)c1cc2c(ccn2C)n1CC(=O)N1CCN(c2ccccc2OC)CC1 | > 10 µM | > 10 µM (inactive) |

| Structure (SMILES) | IC50 [1] | IC50 [2] |
| --- | --- | --- |
| O=C(Nc1nnc(-c2ccc(Cl)cc2)o1)c1ccccc1Br | 13.1 µM | 2.37 µM |
| O=c1c2c3c(sc2ncn1/N=C/c1ccc([N+](=O)[O-])o1)CCCC3 | 1.59 µM | 2.19 µM (inactive) |
| C/C(CCC12CC3CC(CC(C3)C1)C2)=N\NC(N)=S | 5.28 µM | 12.7 µM (inactive) |
| Cc1cc(OCC(F)(F)C(F)(F)C(F)(F)C(F)(F)C(F)(F)C(F)F)nc(N)n1 | > 10 µM | > 10 µM (inactive) |
| O=[N+]([O-])c1ccc(N2CCN(S(=O)(=O)c3ccc(Cl)cc3)CC2)cc1NCc1cccnc1 | > 10 µM | > 10 µM (inactive) |
| O=C(NCCc1ccccc1)C1CCN(S(=O)(=O)N2CCCC2)CC1 | > 10 µM | > 10 µM (inactive) |
| COc1ccc2c(c1)C(C)=CC(C)(C)N2C(=O)CSc1nnc(-c2ccc(C)cc2)o1 | > 10 µM | > 10 µM (inactive) |
| CCN(CC)c1ccc(CN2CC=C(c3ccc(F)cc3)CC2)cc1 | 25.8 µM | > 10 µM (inactive) |
| Cc1cccc(-n2c(N)c(C(=O)NCCN3CCOCC3)c3nc4ccccc4nc32)c1 | > 10 µM | > 10 µM (inactive) |
| O=C(NCc1ccccc1)NS(=O)(=O)c1ccccc1Cl | > 10 µM | > 10 µM (inactive) |
| O=C(NC(C(=O)c1ccccc1)N1CCCCC1)c1ccccc1 (stereo unspecified) | > 10 µM | > 10 µM (inactive) |
| CS(=O)(=O)N1CCC(C(=O)NCCN2CCN(Cc3ccccc3)CC2)CC1 | > 10 µM | > 10 µM (inactive) |
| N#CC1=C2SCC(O)(c3ccccc3)N2C(=O)CC1c1ccccc1 (stereo unspecified) | > 10 µM | > 10 µM (inactive) |
| Clc1ccc(-c2n[nH]c3c2CCC3)c(Cl)c1 | 0.518 µM | 0.219 µM |
| COc1ccc(N2CCN(C(=O)CCNS(=O)(=O)c3ccc(Br)s3)CC2)cc1 | > 10 µM | > 10 µM (inactive) |
| O=C(OCn1ncc(Cl)c(Cl)c1=O)c1ccc(C(F)(F)F)cc1 | > 10 µM | > 10 µM (inactive) |
| CC1CN(CCCCOc2ccc(C(C)C)cc2)CC(C)O1 (stereo unspecified) | > 10 µM | > 10 µM (inactive) |
| C=CCc1ccc(OCC(O)CN2CCC(Cc3ccccc3)CC2)c(OC)c1 (stereo unspecified) | 19.1 µM | 19.4 µM (inactive) |
